# Target: T1, HMG-CoA synthase (Rattus norvegicus, UniProt P17425)
# T1 construct: The livers from male Charles River CD rats (225-350 g) were homogenized in 0.25 M sucrose; from tissue; host or cells: rat liver (male Charles River CD rats), 100,000×g supernatant, ammonium sulfate precipitate, DEAE-52 fraction
# T1 sequence (P17425 1-520): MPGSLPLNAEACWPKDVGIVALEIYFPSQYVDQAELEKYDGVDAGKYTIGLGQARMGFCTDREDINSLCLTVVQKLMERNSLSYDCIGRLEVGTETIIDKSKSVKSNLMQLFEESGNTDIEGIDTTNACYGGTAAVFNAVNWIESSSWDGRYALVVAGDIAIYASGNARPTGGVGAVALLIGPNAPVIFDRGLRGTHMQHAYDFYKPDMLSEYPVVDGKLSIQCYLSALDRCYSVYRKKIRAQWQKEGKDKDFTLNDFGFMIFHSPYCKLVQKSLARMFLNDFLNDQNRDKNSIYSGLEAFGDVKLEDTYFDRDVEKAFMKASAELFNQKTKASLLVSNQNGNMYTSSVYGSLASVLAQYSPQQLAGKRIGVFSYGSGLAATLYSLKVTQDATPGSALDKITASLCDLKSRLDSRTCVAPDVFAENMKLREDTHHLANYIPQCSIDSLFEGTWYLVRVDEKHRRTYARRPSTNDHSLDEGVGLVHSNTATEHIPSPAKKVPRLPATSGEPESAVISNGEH
# Test: HMG-CoA Synthase Inhibition Assay
# Format: biochemical
# Conditions: for IC50: in vitro, enzyme from rat liver
# Procedure: The intrinsic HMG-CoA synthase inhibition activity of the compounds of this invention is measured by the standard in vitro protocol described below:
# The livers from male Charles River CD rats (225-350 g) were homogenized in 0.25 M sucrose which was adjusted with phenylmethylsulfonylfluoride (PMSF) and N-p-tosyl-1-lysine chloromethyl ketone (TLCK) so that the final concentration of each was […], respectively. The homogenate was centrifuged at 15,000×g for 20 minutes, the supernatant filtered through a fine nylon screen to remove most of the fat layer and recentrifuged at 100,000×g for 1 hour. This supernatant was removed and 1 M potassium phosphate, dithiothreitol (DTT) and ethylene glycol-bis(β-aminoethyl ether)-N,N,N',N'-tetraacetic acid (EGTA) added to give a final concentration of 0.1 M (pH 7.2), 0.5 mM and 0.1 mM, respectively. Solid ammonium sulfate was added to 50% saturation to the protein solution, it was centrifuged at 15,000×g and the supernatant discarded. This precipitated protein could be stored at -70° C. for at least one month with very little loss of activity. The ammonium sulfate precipitate was dissolved in an minimal amount of 0.06 M potassium phosphate buffer (pH 7.2) containing 0.5 mM dithiothreitol and 0.1 mM EGTA (referred to as 0.06 M phosphate buffer) and dialyzed overnight against 2 liters of the same buffer to remove the ammonium sulfate and to inactivate HMG-CoA lyase [Clinkenbeard, et al., J. Biol. Chem. 250, 3108-3116(1975)].
# The dialyzed extract was added to a column of DEAE-52 (Whatman) which had been equilibrated with 0.06 M phosphate buffer (10 mg of protein to 1 ml bed volume of the resin). The DEAE-cellulose was eluted with 0.06 M phosphate buffer until the optical density at 280 nm was essentially zero. This fraction contained the β-ketoacetyl-CoA thiolase activity. The HMG-CoA synthase was eluted from the column with 0.1 M phosphate buffer (pH 7.2) containing 0.5 mM DTT and 0.1 mM EGTA, and was virtually free of all thiolase activity. The protein was precipitated by the addition of ammonium sulfate to give 50% saturation. This solution was stirred for 10 minutes at 4° C. and the precipitate collected by centrifugation at 15,000 rpm for 10 minutes. The supernatant was discarded and the precipitate dissolved in a minimum of 0.06 M phosphate buffer, pH 7.2 (about 10 ml) and the enzyme stored at -80° C.
# HMG-CoA Synthase Inhibition Assay
# Enzyme protein (ca. […]) was added to a solution containing 117 mM Tris-HCl (pH 8.0), 11.7 mM MgCl2, 1.17 mM ethylenediaminetetraacetic acid (EDTA), 0.58 mM dithiothreitol, and the indicated concentrations of the test compound (added as a 2 mg/ml solution in dimethylsulfoxide). The incubation took place in a volume of 0.085 ml at 30° in a shaking water bath. After 5 minutes, […] of a solution containing acetoacetyl-CoA and 0.1 μCi of 1-[^14 C]-acetyl-CoA was added to give a final concentrations of 0.1 and 0.4 μM, respectively. The incubation was continued for 10 more minutes and the reaction stopped by the addition of […] of the assay mixture to 0.2 ml of 6N HCl in a glass scintillation vial. The vial was heated for 1 hour at 120° after which time 0.2 ml more of 6N HCl was again added to each vial and the heating continued for another hour. Following this, 1.0 ml of 0.9% saline was added to each vial and finally 10 ml of scintillation liquid. Radioactivity was determined in a Packard Tri-Carb liquid scintillation counter. Percent inhibition is calculated by the formula: [formula] IC50 values were determined by plotting the log of the concentration of the test compound verses the percentage inhibition and fitting a straight line to the resulting data by using the least squares method.
Structure (SMILES),IC50,further results
"COC(=O)/C=C(C)/C=C(\C)CC(C)CCCCC1OC(=O)C1C (stereo not shown) [R^1=OCH3, R^2=H, methyl 11-(3-methyl-4-oxo-2-oxetano)-3,5,7-trimethyl-2,4-undecadienoate]",,"inhibition at 6 µM (at 6 × 10^-6 M, read-out: percent inhibition): 22.7%; IC25 (concentration giving 22.7 percent inhibition, read-out: IC25 (printed in the IC50 column, in parentheses)): 6 µM"
"COC(=O)/C=C(C)/C=C(\C)CC(C)CCCCC1OC(=O)C1CN=[N+]=[N-] (stereo not shown) [R^1=OCH3, R^2=N3, methyl 11-(3-azidomethyl-4-oxo-2-oxetano)-3,5,7-trimethyl-2,4-undecadienoate]",0.1 µM,
"CC(=C\C(=O)O)/C=C(\C)CC(C)CCCCC1OC(=O)C1CCl (stereo not shown) [R^1=OH, R^2=Cl, 11-(3-Chloromethyl-4-oxo-2-oxetano)-3,5,7-trimethyl-2,4-undecadienoic acid]",0.3 µM,
"CC(=C\C(=O)O)/C=C(\C)CC(C)CCCCC1OC(=O)C1C (stereo not shown) [R^1=OH, R^2=H, 11-(3-methyl-4-oxo-2-oxetano)-3,5,7-trimethyl-2,4-undecadienoic acid]",0.1 µM,

# Further lines, with some results ahead:
IC50,Structure (SMILES),further results
2.9 µM,"COC(=O)/C=C(C)/C=C(\C)CC(C)CCCCC1OC(=O)C1CC#N (stereo not shown) [R^1=OCH3, R^2=CN, methyl 11-(3-cyanomethyl-4-oxo-2-oxetano)-3,5,7-trimethyl-2,4-undecadienoate]",
10 µM,"COC(=O)/C=C(C)/C=C(\C)CC(C)CCCCC1OC(=O)C1CSC(C)=O (stereo not shown) [R^1=OCH3, R^2=drawing 3, methyl 11-(3-acetylthiomethyl-4-oxo-2-oxetano)-3,5,7-trimethyl-2,4-undecadienoate]","inhibition at 10 µM (at 10^-5 M, read-out: percent inhibition): 47.9%"
1.4 µM,"CC(=C\C(=O)O)/C=C(\C)CC(C)CCCCC1OC(=O)C1CBr (stereo not shown) [R^1=OH, R^2=Br, 11-(3-bromomethyl-4-oxo-2-oxetano)-3,5,7-trimethyl-2,4-undecadienoic acid]",
0.28 µM,"CC(=C\C(=O)O)/C=C(\C)CC(C)CCCCC1OC(=O)C1CF (stereo not shown) [R^1=OH, R^2=F, 11-(3-fluoromethyl-4-oxo-2-oxetano)-3,5,7,-trimethyl-2,4-undecadienoic acid]",

# Reference: patent US4816477A, “Antihypercholesterolemic β-lactones” (Merck & Co., Inc., priority 1987, dated 1989)
